# Source: patent US20240342190A1, “METHODS FOR REDUCING ISCHEMIA-REPERFUSION INJURIES” (BioMimetix JV, LLC, priority 2023, published 2024)
# Entries after “also recorded” stand apart in the source; their conditions may differ.
# Key:
# blood brain barrier = test: Experiment 7: blood brain barrier permeability after intracarotid infusion (Evans blue content); conditions: non-stroke rats, vs vehicle
# Procedure: 30 μg/kg of BMX-001 (n=4), or same amount of saline (n=4) or mannitol (n=4) was given to normal male Wistar rats through the carotid artery. The rats received 100 μl 2% Evans blue intravenous infusion 30 min later and then intracardially perfused using 100 ml normal saline at 30 min following infusion. Brains were harvested and the Evans blue content was measured spectrophotometrically.
# [1] = tested on: animal model of ischemic stroke; conditions: given 6 hours after reperfusion; cited from earlier work
SMILES,"Evans blue content in brain / blood brain barrier permeability, in words (blood brain barrier)","Protection in ischemic stroke, in words [1]"
"OC[C@@H](O)[C@@H](O)[C@H](O)[C@H](O)CO [Mannitol, reference compound]",significant increase of Evans blue content; also recorded: did increase the blood brain barrier (BBB) permeability,–
CC[n+]1ccccc1-c1c2nc(c(-c3cccc[n+]3CC)c3ccc([n-]3)c(-c3cccc[n+]3CC)c3nc(c(-c4cccc[n+]4CC)c4ccc1[n-]4)C=C3)C=C2.[Mn+3] [MnTE-2-PyP^5+],–,provided protection
